Source: patent publication US20260347403A1, “FUNGICIDAL COMPOUND” (priority 2022, published 2026)
Numbered stars: 1 amine (or outer) side, 2 acyl side, 3 side chain; on linkers, the order of the positions; unused ones are H or OH. Bridge positions count the residues as written; N and C are the ends. Square brackets hold non-standard residues; d marks the D form. Peptide text beside a SMILES is read from it. * marks the point of attachment. X4 = NC(=O)C[C@@H](O)[C@@H](N[*:1])C(=O)[*:2]; d(aThr) = C[C@@H](O)[C@@H](N)C(=O)O; NMeF = CN[C@@H](Cc1ccccc1)C(=O)O; X3 = CC[C@@H](C)CCCCCCCCCCC(=O)*; dNMeN = CN[C@H](CC(N)=O)C(=O)O

How the values were obtained:
[1] = system: ROS production induced by flg22; assay: Reactive Oxygen Species (ROS) burst assay with wheat leaf discs; conditions: Triticum aestivum, foliar, read-out: Fold change (peak ROS)
[2] = system: several phytopathogenic fungi; assay: Liquid culture assays, summary over the fungi tested; assay type: cell-based; conditions: Tables 2 and 3; relative to the other compounds
Description: (§1) Mycelia fragments or conidia suspensions of a fungus, prepared either freshly from liquid cultures of the fungus or from cryogenic storage, were directly mixed into nutrient broth.
(§2) A stock solution for compound of Formula I(a) and Formula I(b) was produced in DMSO (max. 10 mg/ml), which was diluted with water plus 0.025% Tween®20 to produce a 10× concentrated sample and 10 μl of this solution was pipetted into a microtiter plate (96-well format). The nutrient broth containing the fungal spores/mycelia fragments was then added to give an end concentration of the tested compound. The test plates were incubated in the dark at 24 °C and 96% rh. The inhibition of fungal growth was determined photometrically after 2-7 days, depending on the pathosystem, and percent antifungal activity relative to the untreated check was calculated.
The effect of the test compound (Formula I(a), I(b) and Lipopeptin A) was tested against the following fungi under the conditions as outlined above and specifically herein below: […]

Botryotinia fuckeliana = assay: Liquid culture, Botryotinia fuckeliana (Botrytis cinerea), Gray Mould, 3-4 days; assay type: cell-based; conditions: Table 3
Description: as §1, §2
(§3) The effect of the test compound (Formula I(a), I(b) and Lipopeptin A) was tested against the following fungi under the conditions as outlined above and specifically herein below:
Botryotinia fuckeliana (Botrytis cinerea)/Liquid Culture (Gray Mould)
Conidia of the fungus from cryogenic storage were directly mixed into nutrient broth (Vogels broth). The inhibition of growth is determined photometrically 3-4 days after application.

several fungal species = assay: Leaf disc or leaf segment tests, summary over the fungi tested; assay type: in vivo; conditions: Tables 4 and 5; relative to the other compounds
Description: (§4) Leaf disks or leaf segments of various plant species were cut from plants grown in the greenhouse. The cut leaf disks, or segments were placed in multiwell plates (24-well format) onto water agar. The leaf disks were sprayed with a test solution before inoculation with the fungal spores. Compounds to be tested were prepared as DMSO solutions (max. 10 mg/ml) which were diluted to the appropriate concentration with water plus 0.025% Tween® 20 just before spraying. The inoculated leaf disks or segments were incubated under defined conditions (temperature, relative humidity, light, etc.) according to the respective test system. A single evaluation of disease level was carried out by visual evaluation 3-9 days days after inoculation, depending on the pathosystem as indicated below. Percent disease control relative to the untreated check leaf disks or segments was then calculated.

Mycosphaerella arachidis = assay: Liquid culture, Mycosphaerella arachidis (Cercospora arachidicola), early leaf spot, 4-5 days; assay type: cell-based; conditions: Table 3
Description: as §1, §2, §3
Mycosphaerella arachidis (Cercospora arachidicola)/liquid culture (early leaf spot) Conidia of the fungus from cryogenic storage were directly mixed into nutrient broth (PDB potato dextrose broth). The inhibition of growth was determined photometrically 4-5 days after application.

[3] = system: Puccinia recondita f. sp. tritici; assay: Leaf disc/segment test on wheat, Puccinia recondita f. sp. tritici (Brown Rust), 7-9 days after application; assay type: in vivo; conditions: Table 5
Description: as §4
Puccinia recondita f. Sp. Tritici/Wheat/Leaf Disc (Brown Rust)
Wheat leaf segments cv. Kanzler were placed on agar in multiwell plates (24-well format) and sprayed with the formulated test compound diluted in water. The leaf disks were inoculated with a spore suspension of the fungus 1 day after application. The inoculated leaf segments were incubated at 19 °C and 75% rh under a light regime of 12 h light/12 h darkness in a climate cabinet and the activity of a compound was assessed as percent disease control compared to untreated when an appropriate level of disease damage appears in untreated check leaf segments (7-9 days after application).

Phaeosphaeria nodorum = assay: Leaf disc test on wheat, Phaeosphaeria nodorum (Glume Blotch), 5-7 days after application; assay type: in vivo, Phaeosphaeria nodorum (Septoria nodorum) on wheat; conditions: Table 5
Description: as §4
Phaeosphaeria Nodorum (Septoria nodorum)/Wheat/Leaf Disc (Glume Blotch)
Wheat leaf segments cv. Kanzler were placed on agar in a multiwell plate (24-well format) and sprayed with the formulated test compound diluted in water. The leaf disks were inoculated with a spore suspension of the fungus 2 days after application. The inoculated test leaf disks were incubated at 20 °C and 75% rh under a light regime of 12 h light/12 h darkness in a climate cabinet and the activity of a compound was assessed as percent disease control compared to untreated when an appropriate level of disease damage appears in untreated check leaf disks (5-7 days after application)

Zymoseptoria tritici = assay: Liquid culture, Zymoseptoria tritici (Septoria tritici), Septoria leaf blotch, 4-5 days; assay type: cell-based; conditions: Table 3
Description: as §1, §2, §3
Zymoseptoria tritici (Septoria tritici)/liquid culture (Septoria leaf blotch) Conidia of the fungus from cryogenic storage were directly mixed into nutrient broth (PDB potato dextrose broth). The inhibition of growth was determined photometrically 4-5 days after application.

Pyrenophora teres = assay: Leaf disc preventative test on barley, Pyrenophora teres (Net Blotch), 5-7 days after application; assay type: in vivo; conditions: Table 5
Description: as §4
Pyrenophora teres/Barley/Leaf Disc Preventative (Net Blotch)
Barley leaf segments cv. Hasso were placed on agar in a multiwell plate (24-well format) and sprayed with the formulated test compound diluted in water. The leaf segments were inoculated with a spore suspension of the fungus 2 days after application. The inoculated leaf segments were incubated at 20 °C and 65% rh under a light regime of 12 h light/12 h darkness in a climate cabinet and the activity of a compound was assessed as disease control compared to untreated when an appropriate level of disease damage appears in untreated check leaf segments (5-7 days after application).

Glomerella lagenarium = assay: Liquid culture, Glomerella lagenarium (Colletotrichum lagenarium), Anthracnose, 3-4 days; assay type: cell-based; conditions: Table 3
Description: as §1, §2, §3
Glomerella lagenarium (Colletotrichum lagenarium)/Liquid Culture (Anthracnose)
Conidia of the fungus from cryogenic storage were directly mixed into nutrient broth (PDB potato dextrose broth). The inhibition of growth was measured photometrically 3-4 days after application.

O=C(O)c1cc(Cl)nc(Cl)c1 [INA, 2.6-dichloro-isonicotinic acid, reference compound]
fold induction at 100 ppm [1]: 1.8

CC[C@@H](C)CCCCCCCCCCC(=O)N[C@H]1C(=O)N[C@@H](CC(=O)O)C(=O)N[C@H](CO)C(=O)N[C@@H](CO)C(=O)N(C)[C@H](CC(N)=O)C(=O)N(C)[C@@H](Cc2ccccc2)C(=O)N[C@H]([C@H](O)CC(N)=O)C(=O)N[C@H](CCC(=O)O)C(=O)O[C@@H]1C [Lipopeptin A, reference compound] (X3-[d(aThr)]D[dS]S[dNMeN][NMeF][X4][dE]; ester 1-C)
activity in liquid culture in words [2]: less active | % reduction fungal growth (Botryotinia fuckeliana; 0.41 ppm): 0% | % reduction fungal growth (Botryotinia fuckeliana; 1.2 ppm): 0% | % reduction fungal growth (Botryotinia fuckeliana; 3.7 ppm): 0% | % reduction fungal growth (Botryotinia fuckeliana; 11 ppm): 0% | % reduction fungal growth (Botryotinia fuckeliana; 33 ppm): 0% | % reduction fungal growth (Botryotinia fuckeliana; 100 ppm): 0% | activity on leaf discs in words (several fungal species): less active | % reduction fungal growth (Mycosphaerella arachidis; 0.41 ppm): 0% | % reduction fungal growth (Mycosphaerella arachidis; 1.2 ppm): 0% | % reduction fungal growth (Mycosphaerella arachidis; 3.7 ppm): 0% | % reduction fungal growth (Mycosphaerella arachidis; 11 ppm): 0% | % reduction fungal growth (Mycosphaerella arachidis; 33 ppm): 0% | % reduction fungal growth (Mycosphaerella arachidis; 100 ppm): 0% | % reduction of fungal growth ([3]; 0.82 ppm): 0% | % reduction of fungal growth ([3]; 2.5 ppm): 0% | % reduction of fungal growth ([3]; 7.4 ppm): 0% | % reduction of fungal growth ([3]; 22 ppm): 0% | % reduction of fungal growth ([3]; 67 ppm): 0% | % reduction of fungal growth ([3]; 200 ppm): 35% | % reduction of fungal growth (Phaeosphaeria nodorum; 0.82 ppm): 0% | % reduction of fungal growth (Phaeosphaeria nodorum; 2.5 ppm): 0% | % reduction of fungal growth (Phaeosphaeria nodorum; 7.4 ppm): 0% | % reduction of fungal growth (Phaeosphaeria nodorum; 22 ppm): 0% | % reduction of fungal growth (Phaeosphaeria nodorum; 67 ppm): 0% | % reduction of fungal growth (Phaeosphaeria nodorum; 200 ppm): 0% | % reduction fungal growth (Zymoseptoria tritici; 0.41 ppm): 0% | % reduction fungal growth (Zymoseptoria tritici; 1.2 ppm): 0% | % reduction fungal growth (Zymoseptoria tritici; 3.7 ppm): 0% | % reduction fungal growth (Zymoseptoria tritici; 11 ppm): 0% | % reduction fungal growth (Zymoseptoria tritici; 33 ppm): 0% | % reduction fungal growth (Zymoseptoria tritici; 100 ppm): 70% | % reduction of fungal growth (Pyrenophora teres; 0.82 ppm): 0% | % reduction of fungal growth (Pyrenophora teres; 2.5 ppm): 0% | % reduction of fungal growth (Pyrenophora teres; 7.4 ppm): 0% | % reduction of fungal growth (Pyrenophora teres; 22 ppm): 0% | % reduction of fungal growth (Pyrenophora teres; 67 ppm): 0% | % reduction of fungal growth (Pyrenophora teres; 200 ppm): 0% | % reduction fungal growth (Glomerella lagenarium; 0.41 ppm): 0% | % reduction fungal growth (Glomerella lagenarium; 1.2 ppm): 0% | % reduction fungal growth (Glomerella lagenarium; 3.7 ppm): 0% | % reduction fungal growth (Glomerella lagenarium; 11 ppm): 0% | % reduction fungal growth (Glomerella lagenarium; 33 ppm): 0% | % reduction fungal growth (Glomerella lagenarium; 100 ppm): 0%
